Measured values taken from patent publication US7018989B2, “Chemical compounds” (University College Cardiff Consultants, LTD, priority 1995, dated 2006).
Read-outs that look alike come from different tables or passages of the source.

Experiments:
HIV-2 [1] = experiment: Inhibition of HIV-2 in CEM cells (giant cell formation); assay type: cell-based; conditions: Human immunodeficiency virus 2, CCRF-CEM, read-out: HIV2 CEM: EC50 for inhibition of HIV-2 in CEM cells
Procedure, shortened: (§1)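 Infection used 100 CCID50 per mL on 5×10^5 cells/mL, followed by exposure to serial compound dilutions. Read-out: microscopic giant cell scoring after 4 days (CEM); trypan blue viable cell count after 5 days (MT-4).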

Toxicity to MT-4 cells = assay type: cell-based, human; conditions: human, mock-infected MT-4 cells; Table 6; mean of two or more repeat experiments; read-out: CC50 MT4: CC50 for toxicity to MT-4 cells
Procedure: (§2) Cells were infected with HIV-1 as previously described [Balzarini et al. AIDS (1991), 5, 21–28]. Briefly, 5×10^5 cells per milliliter were infected with HIV-1 or HIV-2 at 100 CCID50 (50% cell culture infective dose) per milliliter of cell suspension. Then 100 μL of the infected cell suspension was transferred to microtiter plate wells and mixed with 100 μL of the appropriate dilutions of the test compounds. After 4 days giant cell formation was recorded microscopically in the HIV-infected cell cultures [CEM], and after 5 days the number of viable cells was determined by trypan blue staining of the HIV-infected cell cultures [MT4].
(§3) The data columns are, in order: • HIV1 MT4: EC50 in μM for inhibition of HIV-1 in MT4 cells. • HIV2 MT4: EC50 in μM for inhibition of HIV-2 in MT4 cells. • CC50 MT4: CC50 in μM for toxicity to MT-4 cells. • HIV1 CEM: EC50 in μM for inhibition of HIV-1 in CEM cells. • HIV2 CEM: EC50 in μM for inhibition of HIV-2 in CEM cells. • HIV2 CEM-TK-: EC50 in μM for inhibition of HIV-2 in CEM/TK^− cells. • CC50 CEM: CC50 in μM for toxicity to CEM cells. • EC50 MSV: EC50 in μM for inhibition of MSV • MCC MSV: Minimum cytotoxic concentration in MSV assay

III-B strain of HIV-1 = experiment: microbe, parasite or virus in culture; assay type: cell-based
Procedure, shortened: (§4)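 C8166 cells (4×10^4/well) in RPMI 1640 with 10% calf serum, mixed with 5-fold compound dilutions, then given 10 CCID50 HIV-1 III-B and kept 5–7 days. Viability of infected and uninfected cells measured by MTT-formazan; duplicates on at least two occasions, averaged.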

HIV-2 [2] = experiment: Inhibition of HIV-2 in CEM/TK- cells; assay type: cell-based; conditions: Human immunodeficiency virus 2, CEM-TK(-)
Procedure, shortened: as §1

HIV-1 [3] = experiment: microbe, parasite or virus in culture; conditions: Human immunodeficiency virus 1, CCRF-CEM
Procedure, shortened: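 Trypan blue staining of MT-4 cultures on day 5 gave viable cell numbers; CEM cultures were checked microscopically for giant cells on day 4. Both cell types were infected at 100 CCID50/mL (5×10^5 cells/mL) and incubated with compound dilutions.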

hog liver esterase = experiment: Incubation with hog liver esterase; assay type: in vitro ADME; conditions: 1 mM, 37° C., Tris-HCl buffer containing 5 mM MgCl2
Procedure: This metabolites co-eluted with the predominant metabolite (X) that was found in the cell extracts after incubation of the intact cells with [^3H] 324. metabolite X corresponds to a compound of formula (10), wherein Y is oxygen, X^1 is NH, X^2 is oxygen, B is thymine, R^1 is Me, R^2 is hydrogen.

[4] = test system: Moloney Sarcoma Virus [MSV]; experiment: MSV-induced tumour formation and survival in NMRI mice; assay type: in vivo; conditions: MSV infected mice
Procedure: Drug doses are 50[low ] or 200 [high] mg/kg/day given i.p. for 4 days starting 1 hour before MSV inoculation.
In Vivo Testing Inhibitory Effects of Test Compounds on the Initiation of MSV-Induced Tumour Formation in NRMI Mice and on the Survival of MSV Innoculated NMRI Mice.
Mice infected with Moloney Sarcoma Virus [MSV] were treated daily with either placebo, or d4T [at one of two doses] or with compound 324 at one of the same [equi-molar] doses.
Two- to three-day old NMRI mice (weighing—2 gram) were innoculated subcutaneously (s.c.) in the left hind leg with 50 μl MSV (100 foci forming units, as measured by in vitro determination of the virus-induced transformation of murine C3H embryo fibroblast cells). At 4 to 5 days post-infection, tumours develop and rapidly increase in volume upon further aging of the mice. Within 10 to 12 days post-infection, mice (then weighing—5 to 6 gram) die from the viral infection. Drug treatment started 1 hour prior to infection of the virus, and further compound administration was given daily i.p. for an additional 3 days. The mean day of tumour initiation (±standard deviation) and the mean day of survival of the mice (±standard deviation) was calculated and statistical significance of the average delay of tumour formation and the mean day of survival in the treated groups versus the untreated (control) group was assessed by two-tailed student's t-test.

HIV-2 [5] = experiment: Inhibition of HIV-2 in MT4 cells; assay type: cell-based; conditions: Human immunodeficiency virus 2, MT4, read-out: HIV2 MT4: EC50 for inhibition of HIV-2 in MT4 cells
Procedure: as §2, §3

HIV RT = HIV RT (Human immunodeficiency virus type 1 group M subtype B, UniProt P03366); experiment: Inhibition of HIV reverse transcriptase; assay type: biochemical; conditions: Table 4
Toxicity to CEM cells = assay type: cell-based, human; conditions: human, mock-infected CEM cells; Table 6; mean of two or more repeat experiments
HIV-1 [6] = experiment: Inhibition of HIV-1 in MT4 cells; assay type: cell-based; conditions: Human immunodeficiency virus 1, MT4; Table 6; mean of two or more repeat experiments; read-out: HIV1 MT4: EC50 for inhibition of HIV-1 in MT4 cells
Procedure: as §2, §3

[7] = Toxicity in C8166 cells (MTT-Formazen); assay type: cell-based; conditions: human, Table 3
Procedure, shortened: as §4

Q: With `COC(=O)C(C)NP(=O)(OCC1C=CC(n2cc(C)c(=O)[nH]c2=O)O1)Oc1ccccc1` (centres unmarked) [Compound 324, 2′,3′-dideoxy-2′,3′-didehydrothymidine 5′-(phenyl N-methoxyalaninyl) phosphoramidate] as the compound, how does the EC50 (HIV-2 [1]) read?
A: The EC50 was 75 nM.

Q: What about the CC50 at 5 days (Toxicity to MT-4 cells) of the same compound?
A: The CC50 at 5 days was over 100000 nM.

Q: What about the “Selectivity CC50/EC50 × 10^3” value (III-B strain of HIV-1; HIV1 in C8166 cells, Table 3) of the same compound?
A: Its value is 46.9 × 10^3.

Q: What about the EC50 (III-B strain of HIV-1; Human immunodeficiency virus 1, C8166, Table 4, read-out: EC50 8166 HIV1) of the same compound?
A: Its EC50 is 3.2 nM.

Q: What about the EC50 (III-B strain of HIV-1; Human immunodeficiency virus 1, HIV1 in C8166 cells, Table 3, read-out: Activity EC50) of the same compound?
A: Its EC50 is 3.2 nM.

Q: What about the EC50 (HIV-2 [2]; read-out: EC50 CEM TK− HIV2) of the same compound?
A: Its EC50 is 80 nM.

Q: What about the EC50 (HIV-2 [2]; read-out: HIV2 CEM-TK-: EC50 for inhibition of HIV-2 in CEM/TK^− cells) of the same compound?
A: The EC50 was 75 nM.

Q: What about the EC50 (HIV-1 [3]; read-out: EC50 CEM HIV1) of the same compound?
A: Its EC50 is 180 nM.

Q: What about the EC50 (HIV-1 [3]; read-out: HIV1 CEM: EC50 for inhibition of HIV-1 in CEM cells) of the same compound?
A: The EC50 was 75 nM.

Q: What about the “metabolite formation with hog liver esterase” value (hog liver esterase) of the same compound?
A: Its value is “time-dependent formation of a metabolite was observed”.

Q: What about the “effect on tumour appearance” value ([4]; high-dose (200 mg/kg/day i.p. for 4 days)) of the same compound?
A: Its value is “significant effect”.

Q: And the “effect on tumour appearance (first disease parameter)” value ([4]; low dose (50 mg/kg/day i.p. for 4 days))?
A: The value was “an effect”.

Q: What about the EC50 (HIV-2 [5]) of the same compound?
A: The EC50 was 53 nM.

Q: And the EC50 (HIV RT)?
A: Its EC50 is 50000 nM.

Q: And the CC50 (Toxicity to CEM cells)?
A: Its CC50 is 100000 nM.

Q: What about the EC50 (HIV-1 [6]) of the same compound?
A: Its EC50 is 81 nM.

Q: And the CC50 [7]?
A: The CC50 was 150000 nM.
